Measurements: article PMC3934957, “A Porphodimethene Chemical Inhibitor of Uroporphyrinogen Decarboxylase” (PLoS ONE, 2014)

Biological target: T1, uroporphyrinogen decarboxylase (UROD) (Homo sapiens, UniProt P06132)
T1 construct: recombinant UROD (GenBank BC001778) with 5'-histidine tag and thrombin cleavage site
T1 sequence (P06132 1-367): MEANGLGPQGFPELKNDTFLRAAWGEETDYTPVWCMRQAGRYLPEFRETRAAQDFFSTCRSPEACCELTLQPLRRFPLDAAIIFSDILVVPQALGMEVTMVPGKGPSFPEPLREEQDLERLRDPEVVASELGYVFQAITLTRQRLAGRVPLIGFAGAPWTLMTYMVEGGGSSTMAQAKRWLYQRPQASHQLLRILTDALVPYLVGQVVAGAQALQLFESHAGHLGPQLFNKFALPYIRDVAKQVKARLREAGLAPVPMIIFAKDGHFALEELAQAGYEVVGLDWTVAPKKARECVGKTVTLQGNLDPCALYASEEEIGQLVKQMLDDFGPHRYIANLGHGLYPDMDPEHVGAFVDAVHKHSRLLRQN
Assay: Recombinant UROD enzyme assay with RP-HPLC fluorescence detection of uroporphyrin/coproporphyrin ([…] UROD, […] uroporphyrinogen)
Assay type: biochemical

Question: How did the IC50 turn out when `CC1=C(CCC(=O)O)C2=Cc3[nH]c(c(C)c3CCC(=O)O)C(C)(C)C3=NC(=Cc4[nH]c(c(C)c4CCC(=O)O)C(C)(C)C1=N2)C(CCC(=O)O)=C3C` [PI-16] was run?
Answer: The IC50 was 9.9 µM.
